Experimental data published in US5686626A, “1,3-dihydro-1-amino-2H-indol-2-ones” (Hoechst Marion Roussel, Inc., priority 1995, dated 1997).
Read-outs that look alike come from different tables or passages of the source.

Experiments:
[1] = Dark Avoidance Assay (scopolamine induced memory deficit reversal); type: in vivo, mice; settings: Mus musculus, read-out: % of Animals With Scopolamine Induced Memory Deficit Reversal; for responders at 3 mg/kg: dose 3.0 mg/kg of body wt; for responders at 0.63 mg/kg: dose 0.63 mg/kg of body wt; for responders at 1.25 mg/kg: dose 1.25 mg/kg of body wt; for responders at 0.3 mg/kg: dose 0.3 mg/kg of body wt
Procedure: The compounds of the present invention are also useful in the treatment of various memory dysfunctions characterized by decreased cholinergic function such as Alzheimer's Disease.
In this assay, mice are tested for their ability to remember an unpleasant stimulus for a period of 24 hours. A mouse is placed in a chamber that contains a dark compartment; a strong incandescent light drives it to the dark compartment, where an electric shock is administered through metal plates on the floor. The animal is removed from the testing apparatus and tested again, 24 hours later, for the ability to remember the electric shock.
If scopolamine, an anticholinergic that is known to cause memory impairment, is administered before an animal's initial exposure to the test chambers, the animal re-enters the dark compartment shortly after being placed in the test chamber 24 hours later. The effect of scopolamine is blocked by an active test compound, resulting in a greater interval before re-entry into the dark compartment.
The results for an active compound are expressed as the percent of a group of animals in which the effect of scopolamine is blocked, as manifested by an increased interval between being placed in the test chamber and re-entering the dark compartment. Presented in Table 2 is the activity of some of the compounds of the invention in this assay.

[2] = phenyl-para-quinone writhing assay in mice (analgesia); type: in vivo; settings: for ED50: Mus musculus, sc, read-out: ED50 of Writhing (subcutaneous dose at which 50% of the phenyl-para-quinone induced writhing is inhibited)
[3] = supramaximal electroshock (SES) assay (anticonvulsant activity); type: in vivo, male mouse (Charles River, CD-1); settings: Mus musculus, ip, 0.5 h; male mice, i.p., 30 minute pretreat; read-out: ED50 (anticonvulsant, protection from extensor tonus)
Procedure: The compounds of the invention are also useful as anticonvulsants due to their anticonvulsant activity in mammals. Anticonvulsant activity is measured in the male mouse using the supramaximal electroshock (SES) assay described in Arch. Int. Pharmacodyn. 92:97-107, 1952. In this procedure, groups of male mice (Charles River, CD-1, 18-30 gm) are used. Drugs are prepared using distilled water and, if insoluble, a surfactant is added. Control animals receive vehicle. Drugs are routinely administered interperitoneally (i.p.) The dosage volume is 10 ml/kg. A primary screen is given a 30 minute pretreat. The animals' eyes are placed across the output terminals of an A.C. shocker that delivers 206 volts rms for 300 msec. Electrode paste coats the animals' eyes at the point of contact with the terminals. […] Protection is expressed as normalized percent inhibition relative to vehicle control.

[4] = mice, dose 1.0 mg/kg of body wt, retest after 24 hours

CCCN(c1ccncc1)N1C(=O)C2(CCN(C)CC2)c2ccccc21 [1'Methyl-1-(propyl-4-pyridinylamino)spiro-[3H-indole-3,4'-piperidin]-2(1 H)-one]
responders at 1 mg/kg ([1]; 24 h): 20%

O=C1Cc2ccccc2N1Nc1ccncc1F [1,3-Dihydro-1-(3-fluoro-4-pyridinylamino)-2H-indol-2-one]
responders at 1 mg/kg [1, 4]: 27% | responders at 3 mg/kg ([1]; mice, retest after 24 hours): 27%

O=C1Cc2ccccc2N1Nc1ccncc1 [1,3-Dihydro-1-(4-pyridinylamino)-2H-indol-2-one]
ED50 [2]: 0.69 mg/kg | responders at 0.31 mg/kg ([1]; mice, dose 0.31 mg/kg of body wt, retest after 24 hours): 27% | responders at 0.63 mg/kg ([1]; mice, retest after 24 hours): 27% | responders at 1.25 mg/kg ([1]; mice, retest after 24 hours): 27%

CCCN(c1ccncc1)N1C(=O)Cc2ccccc21 [1,3-Dihydro-1-(propyl-4-pyridinylamino)-2H-indol-2-one]
% Inhibition of Writhing (% decrease in writhing at a given dose) ([2]; 20 mg/kg, s.c.): -58% | responders at 1.25 mg/kg ([1]; mice, retest after 24 hours): 27% | ED50 [3]: 15.9 mg/kg

CCCN(c1ccncc1F)N1C(=O)Cc2ccccc21 [1,3-Dihydro-1-[(3-fluoro-4-pyridinyl)-propylamino]-2H-indol-2-one]
responders at 0.3 mg/kg ([1]; mice, retest after 24 hours): 20% | responders at 3 mg/kg ([1]; mice, retest after 24 hours): 20%

CC1C(=O)N(Nc2ccncc2F)c2ccccc21 (stereo not drawn) [1,3-Dihydro-1-[(3-fluoro-4-pyridinyl)amino]-3-methyl-2H-indol-2-one hemifumarate]
responders at 0.3 mg/kg ([1]; mice, retest after 24 hours): 27% | responders at 3 mg/kg ([1]; mice, retest after 24 hours): 20%

CCCN(c1ccncc1)N1C(=O)C(C)(C)c2ccccc21 [1,3-Dihydro-3,3-dimethyl-1-(propyl-4-pyridinylamino)-2H-indol-2-one]
responders at 0.3 mg/kg ([1]; mice, retest after 24 hours): 20% | ED50 [3]: 30.7 mg/kg

CCCN(c1ccncc1)N1C(=O)C2(Cc3ccccc3C2)c2ccccc21 [1,3-dihydro-1'-(propyl-4-pyridinylamino)spiro[2H-indene-2,3'-[3H]indol]-2'(1'H)-one]
responders at 3 mg/kg ([1]; mice, retest after 24 hours): 25%

CCCN(c1ccncc1F)N1C(=O)C(C)(C)c2ccccc21 [1,3-dihydro-3,3-dimethyl-1-[4-(3-fluoropyridinyl)propylamino]2H-indol-2-one]
responders at 0.3 mg/kg ([1]; mice, retest after 24 hours): 21% | responders at 1 mg/kg [1, 4]: 27%

NN1C(=O)C(Cc2ccncc2)(Cc2ccncc2)c2ccccc21 [1-Amino-3,3-bis(4-pyridinylmethyl)-1,3-dihydro-2H-indol-2-one]
responders at 0.3 mg/kg ([1]; mice, retest after 24 hours): 21%

CCC1(c2ccccc2)C(=O)NC(=O)NC1=O [Phenobarbital, reference compound]
ED50 [3]: 8.4 mg/kg

CC[C@@H]1C(=O)OC[C@@H]1Cc1cncn1C [Pilocarpine, reference compound]
responders at 1.25 mg/kg ([1]; mice, retest after 24 hours): 19%

O=C(O)c1ccccc1O [Salicylic Acid, reference compound]
ED50 [2]: 3.28 mg/kg

Nc1c2c(nc3ccccc13)CCCC2 [Tacrine, reference compound]
responders at 0.63 mg/kg ([1]; mice, retest after 24 hours): 13%
